Test results taken from patent US5846936A, “Growth hormone releasing factor analogs” (Roche Vitamins Inc., priority 1995, dated 1998).
Where a SMILES comes first, the peptide text is derived from it. Where no end group is shown, it is not given here. [ ]: non-standard residue; d: D form. The star is where a group is joined. Desaminotyrosyl = O=C(CCc1ccc(O)cc1)*

tested on: rat pituitary cells; experiment: not given; assay type: cell-based; settings: not given
Procedure: The biological activity of the novel peptides were compared with that of a synthetic standard of the natural sequence of GRF(1-44)-NH2 (SEQ ID NO: 1-NH2) which was isolated from a human pancreatic tumor of an individual suffering from acromegaly (Salk Institute standard hp-GRF-NH2 (NL-A-10)). The assay for biological activity, which is based on the ability to stimulate production of growth hormone in rat pituitary cells in tissue culture, was performed in the following manner. Pituitaries from 30-40 male Sprague-Dawley rats (175 g) were removed aseptically after decapitation. The anterior lobes were collected, washed 3 times in sterile Hepes buffer (0.025M)(pH 7.35) and dispersed at 37° C. in 20-30 ml Hepes buffer (pH 7.35) containing collagenase (4 mg per ml) and Dispase (Protease grande II, 2 mg per ml). After gentle 80 min. vortexing and trituration by Pasteur pipette, the dispersed cells were separated by centrifugation (150×g, 4 min.) and re-suspended in Hepes buffer containing neuraminidase (4 mg/ml), and […] ethylenediaminetetraacetic acid (EDTA) disodium salt pH 7.35, for 10 min. The cells were washed twice with plating medium and plated on multiwell-plates (1.5×10^5 cells per ml) using the following defined medium: F-12/DMEM/BGJ(6:3:1) (Gibco: 430-1700/430-1600/320-2591) with 2 g BSA/L., 2.38 g Hepes/L.,50 mg Gentamycin/L (Schering Co.). The medium in each well was supplemented either with the novel peptide or natural GRF(1-44)-NH2 (SEQ ID NO: 1-NH2) at concentrations ranging from 3.1 to 200 fmol. per ml. of medium. Control wells contained no supplement. Plating was done with this medium added with 2% fetal calf serum to ensure rapid fixation of the cells. On the fourth day the cells were washed twice with the defined medium without fetal calf serum. Finally […] of defined medium was added to each well plus […] of the same medium containing each individual treatment, in triplicate. After 3 hours of incubation the medium was collected and diluted as required to conduct radioimmunoassay (RIA) for rat growth hormone. RIAs were conducted using Sinha's anti-murine GH immune serum and procedures according to the National Pituitary Agency using protein A to precipitate antibody antigen complex.

Compound	Potency of GRF Analogs Relative to GRF(1-44)-NH2 (SEQ ID NO: 1-NH2)
CC[C@H](C)[C@H](NC(=O)[C@H](C)NC(=O)[C@H](CC(=O)O)NC(=O)[C@@H](C)NC(=O)CCc1ccc(O)cc1)C(=O)N[C@@H](Cc1ccccc1)C(=O)N[C@H](C(=O)N[C@@H](CCC(N)=O)C(=O)N[C@@H](CO)C(=O)N[C@@H](Cc1ccc(O)cc1)C(=O)N[C@@H](CCCNC(=N)N)C(=O)N[C@@H](CCCCN)C(=O)N[C@H](C(=O)N[C@@H](CC(C)C)C(=O)N[C@@H](C)C(=O)N[C@@H](CCC(N)=O)C(=O)N[C@@H](CC(C)C)C(=O)N[C@@H](CO)C(=O)N[C@@H](C)C(=O)N[C@@H](CCCNC(=N)N)C(=O)N[C@@H](CCCCN)C(=O)N[C@@H](CC(C)C)C(=O)N[C@@H](CC(C)C)C(=O)N[C@@H](CCC(N)=O)C(=O)N[C@@H](CC(=O)O)C(=O)N[C@H](C(=O)N[C@@H](CC(C)C)C(=O)N[C@@H](CO)C(=O)N[C@@H](CCCNC(=N)N)C(=O)N[C@@H](CCC(N)=O)C(=O)N[C@@H](CCC(N)=O)C(=O)NCC(=O)O)[C@@H](C)CC)C(C)C)[C@@H](C)O [SEQ ID NO: 31-OH] (Desaminotyrosyl-[dA]DAIFTQSYRKVLAQLSARKLLQDILSRQQG-OH)	4.20
HVDAIFTQSYRKVLAQLSARKLLQDILSRQQG [SEQ ID NO: 13-OH]	2.79
CC[C@H](C)[C@H](NC(=O)[C@H](C)NC(=O)[C@H](CC(=O)O)NC(=O)[C@@H](C)NC(=O)CCc1ccc(O)cc1)C(=O)N[C@@H](Cc1ccccc1)C(=O)N[C@H](C(=O)N[C@@H](CCC(N)=O)C(=O)N[C@@H](CO)C(=O)N[C@@H](Cc1ccc(O)cc1)C(=O)N[C@@H](CCCNC(=N)N)C(=O)N[C@@H](CCCCN)C(=O)N[C@H](C(=O)N[C@@H](CC(C)C)C(=O)N[C@@H](C)C(=O)N[C@@H](CCC(N)=O)C(=O)N[C@@H](CC(C)C)C(=O)N[C@@H](CO)C(=O)N[C@@H](C)C(=O)N[C@@H](CCCNC(=N)N)C(=O)N[C@@H](CCCCN)C(=O)N[C@@H](CC(C)C)C(=O)N[C@@H](CC(C)C)C(=O)N[C@@H](CCC(N)=O)C(=O)N[C@@H](CC(=O)O)C(=O)N[C@H](C(=O)N[C@@H](CCSC)C(=O)N[C@@H](CO)C(=O)N[C@@H](CCCNC(=N)N)C(N)=O)[C@@H](C)CC)C(C)C)[C@@H](C)O [SEQ ID NO: 10-NH2] (Desaminotyrosyl-[dA]DAIFTQSYRKVLAQLSARKLLQDIMSR-NH2)	4.57
CC[C@H](C)[C@H](NC(=O)[C@H](C)NC(=O)[C@H](CC(=O)O)NC(=O)[C@@H](C)NC(=O)[C@@H](N)Cc1c[nH]cn1)C(=O)N[C@@H](Cc1ccccc1)C(=O)N[C@H](C(=O)N[C@@H](CCC(N)=O)C(=O)N[C@@H](CO)C(=O)N[C@@H](Cc1ccc(O)cc1)C(=O)N[C@@H](CCCNC(=N)N)C(=O)N[C@@H](CCCCN)C(=O)N[C@H](C(=O)N[C@@H](CC(C)C)C(=O)N[C@@H](C)C(=O)N[C@@H](CCC(N)=O)C(=O)N[C@@H](CC(C)C)C(=O)N[C@@H](CO)C(=O)N[C@@H](C)C(=O)N[C@@H](CCCNC(=N)N)C(=O)N[C@@H](CCCCN)C(=O)N[C@@H](CC(C)C)C(=O)N[C@@H](CC(C)C)C(=O)N[C@@H](CCC(N)=O)C(=O)N[C@@H](CC(=O)O)C(=O)N[C@H](C(=O)N[C@@H](CC(C)C)C(=O)N[C@@H](CO)C(=O)N[C@@H](CCCNC(=N)N)C(=O)N[C@@H](CCC(N)=O)C(=O)N[C@@H](CCC(N)=O)C(=O)NCC(=O)O)[C@@H](C)CC)C(C)C)[C@@H](C)O [SEQ ID NO: 17-OH] (H-H[dA]DAIFTQSYRKVLAQLSARKLLQDILSRQQG-OH)	3.23

tested on: not given; experiment: not given; settings: products of Asn^8 deamidation of [Leu^27]-GRF(1-32)-NH2 at pH 7.4, literature; cited from earlier work

Compound	Biological activities
[Asp^8, Leu^27 ]-GRF(1-32)-NH2 (YADAIFTDSYRKVLGQLSARKLLQDILSRQQG-NH2) [deamidation product of [Leu^27]-GRF(1-32)-NH2]	substantially reduced biological activities

tested on: not listed separately; experiment: Half-life stability of GRF analogs in aqueous solution by reverse phase HPLC; assay type: physicochemical; settings: aqueous buffer pH 7.40 (0.25M Na2HPO4/H3PO4, 1.0 mM NaN3), 37° C., 0.15 mg/mL
Procedure: Half-life stability of GRF analogs in aqueous solution was determined by reverse phase HPLC at 37° C. GRF analogs were prepared as described above. GRF analogs were dissolved in […] of H2 O and then taken up in 1.0 mL of buffer solution (pH 7.40) containing 0.25M Na2 HPO4 /H3 PO4 and 1.0 mM NaN3. The concentration of the GRF analogs was 0.15 mg/mL. The HPLC system was a Laboratory Data Control (LDC) HPLC with a Waters C-18 column (3.9×300 mm, 10μ). The detector was a LDC Spectromonitor III and the gradient delivery system was a Constametric II. Mobile phase--(A) 0.025% TFA in H2 O, (B) 0.025% TFA in acetonitrile. Gradient was 0-37% (B) in 15 minutes for SEQ ID NO: 8-NH2 where Xaa^1 is desNH2 Tyr and Xaa^2 is D-Ala and SEQ ID NO: 9-NH2 where Xaa^1 is desNH2 Tyr and Xaa^2 is D-Ala; 0-35% (B) in 15 minutes for SEQ ID NO: 35-NH2 where Xaa^1 is desNH2 Tyr and Xaa^2 is D-Ala; and 0-36% (B) in 15 minutes for SEQ ID NO: 10-NH2 where Xaa^1 is desNH2 Tyr and Xaa^2 is D-Ala. Flow rate for all gradients was 2 ml/minute. Detection was at 206 nm using a UV detector.

Compound	HALF-LIFE t(1/2) [h]
CC[C@H](C)[C@H](NC(=O)[C@H](C)NC(=O)[C@H](CC(=O)O)NC(=O)[C@@H](C)NC(=O)CCc1ccc(O)cc1)C(=O)N[C@@H](Cc1ccccc1)C(=O)N[C@H](C(=O)N[C@@H](CCC(N)=O)C(=O)N[C@@H](CO)C(=O)N[C@@H](Cc1ccc(O)cc1)C(=O)N[C@@H](CCCNC(=N)N)C(=O)N[C@@H](CCCCN)C(=O)N[C@H](C(=O)N[C@@H](CC(C)C)C(=O)N[C@@H](C)C(=O)N[C@@H](CCC(N)=O)C(=O)N[C@@H](CC(C)C)C(=O)N[C@@H](CO)C(=O)N[C@@H](C)C(=O)N[C@@H](CCCNC(=N)N)C(=O)N[C@@H](CCCCN)C(=O)N[C@@H](CC(C)C)C(=O)N[C@@H](CC(C)C)C(=O)N[C@@H](CCC(N)=O)C(=O)N[C@@H](CC(=O)O)C(=O)N[C@H](C(=O)N[C@@H](CCSC)C(=O)N[C@@H](CO)C(=O)N[C@@H](CCCNC(=N)N)C(N)=O)[C@@H](C)CC)C(C)C)[C@@H](C)O [SEQ ID NO: 10-NH2] (Desaminotyrosyl-[dA]DAIFTQSYRKVLAQLSARKLLQDIMSR-NH2)	122
